Test results taken from patent publication USRE47141E1, “Methods of treating fibrosis, cancer and vascular injuries” (EWHA University—Industry Collaboration Foundation, priority 2010, dated 2018).

Assays:
[1] = tested on: TGF-β1-induced Smad2/3 nuclear translocation in MCF10A cells; experiment: Immunofluorescence assay; assay type: cell-based; details: TGF-β1 2 ng/mL, 1 μM, 2 h
Procedure: MCF10A cells were plated on the cover glass in 6-well plate at 2×10^5 cells/well. After 12 h, when cells were attached, 10% FBS medium was changed to 0.5% FBS medium. […] Then, cells were fixed with 4% formaldehyde solution for 30 min at room temperature and quenched with quenching solution (50 mM NH4Cl in PBS) for 15 min. After being washed three times with PBS, cells were incubated with blocking/permeabilization solution (1% BSA and 0.1% Triton X-100 in PBS) for 1 h at room temperature and incubated with anti-Smad2/3 antibody (BD Biosciences, Franklin Lakes, N.J., USA) overnight at 4° C. Fluorescence was visualized by Cy3-conjugated goat anti-mouse IgG (Jackson ImmunoResearch Laboratories, Bar Harbor, Me., USA). Nuclei of the same cells were stained with DAPI solution. Cells were analyzed using the LSM 510 META laser confocal microscopy system (Carl Zeiss, Germany).

MCF10A cells = experiment: Wound healing assay; assay type: cell-based; details: TGF-β1 2 ng/mL, 1 μM, 16 h
Procedure: MCF10A cells were seeded at 2×10^5 cells/well in 6-well plate. When each well was occupied by cells over 80% of the area, 10% FBS was changed to 0.2% FBS. […] Wound area change from 0 to 16 h was calculated based on Image J program (National Institutes of Health, MD, USA) based on phase-contrast images of cells taken by microscope.

4T1 cells = experiment: Matrigel invasion assay; assay type: cell-based; details: TGF-β1 2 ng/mL, 20 h
Procedure: The upper surface of Transwells (6.5 mm diameter, 8 μm pore size; […] After incubation for 20 h at 37° C. in 5% CO2, the cells remaining on the upper surface of the membrane were removed with a cotton swab, and DAPI-stained cells remaining on the bottom surface were observed using fluorescence microscopy. Average cell number per view field was obtained from 5 random fields.

[2] = tested on: bleomycin (BLM)-treated mice; experiment: Anti-fibrotic effect on bleomycin-induced lung fibrosis model; assay type: in vivo
[3] = 5, 10, or 20 mg/kg orally five times per week for two weeks starting from day 7, Western blot

Cc1cccc(-c2[nH]c(CNc3ccccc3F)nc2-c2ccc3ncnn3c2)n1 [Example 2, N-((4-([1,2,4]triazolo[1,5-a]pyridin-6-yl)-5-(6-methylpyridin-2-yl)-1H-imidazol-2-yl)methyl)-2-fluoroaniline]
TGF-β1-induced Smad2/3 nuclear translocation [1]: suppressed
TGF-β1-induced cell migration (MCF10A cells): suppressed
TGF-β1-induced cell invasion (4T1 cells): suppressed
fibronectin in BLM-induced fibrotic lung [2, 3]: suppressed
α-SMA in BLM-induced fibrotic lung [2, 3]: suppressed
BLM-induced histological changes ([2]; all dose levels tested (5, 10, 20 mg/kg orally), lung, H&E staining): greatly reduced
